The text below walks through data of patent US20090209460A1, “COMPOSITIONS AND METHODS FOR TREATING OBESITY AND RELATED METABOLIC DISORDERS” (Amylin Pharmaceuticals, Inc., priority 2005, published 2009).

Data set [1] is described as follows: brush border membrane (BBM) stability assay. Type of data set: in vitro ADME, human. The conditions noted are these: brush border membrane extract (e.g. kidney). The method, then: Some exemplary NMX Peptides and FNX Peptides were tested for stability in a brush border membrane (BBM) assay as described herein. To determine the enzymatic stability of peptide hormones peptides are incubated with a preparation of human brush border membranes extract (e.g., kidney), and the stability of the peptide is determined by measuring concentration of the intact peptide at specific intervals. The brush border membrane extract contains dipeptidyl peptidase IV (DPP-IV), neutral endopeptidases, peptidyl-dipeptidase A, carboxypeptidases and aminopeptidases. These are the primary enzymes that degrade peptides in vivo and are found in the kidneys, liver, lungs and pancreas. Resistance against these human proteases would increase peptide half-life. In the BBM assay test peptide was subjected to digestion over a period of five (5) hours with human brush border membrane extracts, e.g. kidney, at 37° C. At desired timepoints digestion was stopped by addition of quench solution, typically 50% ACN, 1% FA. After centrifugation to remove membrane debris, supernatant was subjected to mass spectrometry using a selected ion scan for the intact molecule of interest. Values are expressed as a percent of stable. A value of at least 80 or greater is regarded as an extremely stable molecule. A value of at least 70 or greater is a molecule with significant stability.

Data set [2] has as its system NIH/Swiss mice. The experiment in a line: acute food intake assay, lean overnight-fasted NIH/Swiss mice, intraperitoneal injection. The settings on record: for Food Intake Inhibition: mouse assay, dose of 200 mg/kg, measured at 60 minutes; for FI (60′, 200): food intake, % change relative to control, 60 min. Type of data set: in vivo, mouse. On the procedure:
The effect of NMX Peptides, FNX Peptides or NMX Receptor agonists on food intake when systemically administered was investigated using an acute food intake assay. This assay measured food consumption in lean subjects. Lean, group-housed, overnight-fasted NIH/Swiss mice. All in vivo tests were performed with peripheral injections of peptide. […] The dose-response data are presented herein. The protocol is described below. Female NIH/Swiss mice (8-24 weeks old) were group housed with a 12:12 hour light:dark cycle, with lights on at 0300. Water and a standard pelleted mouse chow diet are available ad libitum, except as noted. Animals are fasted starting at approximately 1530 hrs, 1 day prior to experiment. At time=0 min, all animals are given an intraperitoneal injection of vehicle or polypeptide in a volume of 200 uL/mouse and immediately given a pre-weighed amount (10-15 g) of the standard chow. Food is removed and weighed at 30, 60, and 120 minutes to determine the amount of food consumed. The effects of treatment on food intake are expressed as % change relative to control.

Setting [3] is: percent compound remaining after a 5 hour incubation, human brush border membrane assay, read-out: hBBM.
The mark [4] stands for this setting: percent of stable, human brush border membrane extracts, five hours, 37° C., read-out: BBM.

SMILES strings stand for the structures. Where two headings read alike, the source gives them in different places. Residues, ends and D or L forms follow the SMILES beside them.

Regarding `CC(C)C[C@H](NC(=O)[C@H](CCCCN)NC(=O)[C@H](CCC(N)=O)NC(=O)[C@@H](NC(=O)[C@H](CCCCN)NC(=O)[C@H](CO)NC(=O)[C@H](Cc1ccc(O)cc1)NC(=O)[C@H](Cc1c[nH]cn1)NC(=O)[C@H](Cc1ccccc1)NC(=O)[C@H](CC(C)C)NC(=O)[C@@H](N)Cc1ccccc1)[C@@H](C)O)C(=O)NCC(=O)N[C@@H](CCCCN)C(=O)N[C@@H](CO)C(=O)N[C@@H](CC(N)=O)C(=O)N[C@H](C(=O)N[C@H](C(=O)N[C@@H](CCC(=O)O)C(=O)N[C@@H](CCC(=O)O)C(=O)N[C@@H](CC(C)C)C(=O)N[C@@H](CCC(N)=O)C(=O)N[C@@H](CO)C(=O)N1CCC[C@H]1C(=O)N[C@@H](Cc1ccccc1)C(=O)N[C@@H](C)C(=O)N[C@@H](CO)C(=O)N[C@@H](CCC(N)=O)C(=O)N[C@@H](CO)C(=O)N[C@@H](CCCNC(=N)N)C(=O)NCC(=O)N[C@@H](Cc1ccccc1)C(=O)N[C@@H](Cc1ccccc1)C(=O)N[C@@H](CC(C)C)C(=O)N[C@@H](Cc1ccccc1)C(=O)N[C@@H](CCCNC(=N)N)C(=O)N1CCC[C@H]1C(=O)N[C@@H](CCCNC(=N)N)C(=O)N[C@@H](CC(N)=O)C(N)=O)C(C)C)C(C)C` [(Phe31]FN38] (H-FLFHYSKTQKLGKSNVVEELQSPFASQSRGFFLFRPRN-NH2; N-terminus assumed), in data set [1] (setting [3]), the remaining at 5 h was 81%. The “Food Intake Inhibition” value in data set [2] is −64%.

Turning to `CC[C@H](C)[C@H](NC(=O)[C@@H](NC(=O)CNC(=O)CNC(=O)[C@@H]1CCCN1C(=O)[C@@H](NC(=O)[C@H](CCC(N)=O)NC(=O)[C@@H](NC(=O)[C@H](CCC(=O)O)NC(=O)[C@H](CCC(=O)O)NC(=O)[C@H](CC(=O)O)NC(=O)[C@H](CO)NC(=O)[C@H](CC(N)=O)NC(=O)[C@H](CO)NC(=O)[C@H](CCCCN)NC(=O)CNC(=O)[C@H](CC(C)C)NC(=O)[C@H](CCCCN)NC(=O)[C@H](CCC(N)=O)NC(=O)[C@@H](NC(=O)[C@H](CCCCN)NC(=O)[C@H](CO)NC(=O)[C@H](Cc1ccc(O)cc1)NC(=O)[C@H](Cc1c[nH]cn1)NC(=O)[C@H](Cc1ccccc1)NC(=O)[C@H](CC(C)C)NC(=O)[C@@H](N)Cc1ccccc1)[C@@H](C)O)C(C)C)C(C)C)C(C)C)C(=O)N[C@@H](CO)C(=O)N[C@@H](CC(N)=O)C(=O)NCC(N)=O` [Compound 165061] (H-FLFHYSKTQKLGKSNSDEEVQVPGGVISNG-NH2; N-terminus assumed), the remaining at 5 h in data set [1] (setting [4]) was determined as 57%. Besides, the “FI (60′, 200)” value in data set [2] is 0%.

`CC(C)C[C@H](NC(=O)[C@H](CCCCN)NC(=O)[C@H](CCC(N)=O)NC(=O)[C@@H](NC(=O)[C@H](CCCCN)NC(=O)[C@H](CO)NC(=O)[C@H](Cc1ccc(O)cc1)NC(=O)[C@H](Cc1c[nH]cn1)NC(=O)[C@H](Cc1ccccc1)NC(=O)[C@H](CC(C)C)NC(=O)[C@@H](N)Cc1ccccc1)[C@@H](C)O)C(=O)NCC(=O)N[C@@H](CCCCN)C(=O)N[C@@H](CO)C(=O)N[C@@H](CC(N)=O)C(=O)N[C@H](C(=O)N[C@H](C(=O)N[C@@H](CCC(=O)O)C(=O)N[C@@H](CCC(=O)O)C(=O)N[C@@H](CC(C)C)C(=O)N[C@@H](CCC(N)=O)C(=O)N[C@@H](CO)C(=O)N1CCC[C@H]1C(=O)N[C@@H](CO)C(=O)N[C@@H](CCCNC(=N)N)C(=O)NCC(=O)N[C@@H](Cc1ccc(O)cc1)C(=O)N[C@@H](Cc1ccccc1)C(=O)N[C@@H](CC(C)C)C(=O)N[C@@H](Cc1ccccc1)C(=O)N[C@@H](CCCNC(=N)N)C(=O)N1CCC[C@H]1C(=O)N[C@@H](CCCNC(=N)N)C(=O)N[C@@H](CC(N)=O)C(N)=O)C(C)C)C(C)C` [Des-(Phe24,Ala25,Ser26,Gln27)-FN38] (H-FLFHYSKTQKLGKSNVVEELQSPSRGYFLFRPRN-NH2; N-terminus assumed): the remaining at 5 h in data set [1] (setting [3]) was found to be 61%. Also, the “Food Intake Inhibition” value in data set [2] is recorded as −83%.

As to `CC(C)C[C@H](NC(=O)[C@H](CCCCN)NC(=O)[C@H](CCC(N)=O)NC(=O)[C@@H](NC(=O)[C@H](CCCCN)NC(=O)[C@H](CO)NC(=O)[C@H](Cc1ccc(O)cc1)NC(=O)[C@H](Cc1c[nH]cn1)NC(=O)[C@H](Cc1ccccc1)NC(=O)[C@H](CC(C)C)NC(=O)[C@@H](N)Cc1ccccc1)[C@@H](C)O)C(=O)NCC(=O)N[C@@H](CCCCN)C(=O)N[C@@H](CO)C(=O)N[C@@H](CC(N)=O)C(=O)N[C@@H](CCC(=O)O)C(=O)N[C@@H](CCC(=O)O)C(=O)N[C@@H](CC(C)C)C(=O)N[C@@H](CCC(N)=O)C(=O)N[C@@H](CO)C(=O)N1CCC[C@H]1C(=O)N[C@@H](Cc1ccccc1)C(=O)N[C@@H](C)C(=O)N[C@@H](CO)C(=O)N[C@@H](CCC(N)=O)C(=O)N[C@@H](CO)C(=O)N[C@@H](CCCNC(=N)N)C(=O)NCC(=O)N[C@@H](Cc1ccc(O)cc1)C(=O)N[C@@H](Cc1ccccc1)C(=O)N[C@@H](CC(C)C)C(=O)N[C@@H](Cc1ccccc1)C(=O)N[C@@H](CCCNC(=N)N)C(=O)N1CCC[C@H]1C(=O)N[C@@H](CCCNC(=N)N)C(=O)N[C@@H](CC(N)=O)C(N)=O` [Des-Val16,Val17-FN38] (H-FLFHYSKTQKLGKSNEELQSPFASQSRGYFLFRPRN-NH2; N-terminus assumed), the remaining at 5 h in data set [1] (setting [3]) came out at 73%. Further, the “Food Intake Inhibition” value in data set [2] is reported as −60%.

In the case of `CC(C)C[C@H](NC(=O)[C@H](CCCCN)NC(=O)[C@H](Cc1ccc(O)cc1)NC(=O)[C@H](Cc1c[nH]cn1)NC(=O)[C@H](Cc1ccccc1)NC(=O)[C@H](CC(C)C)NC(=O)[C@@H](N)Cc1ccccc1)C(=O)NCC(=O)N[C@@H](CCCCN)C(=O)N[C@@H](CO)C(=O)N[C@@H](CC(N)=O)C(=O)N[C@H](C(=O)N[C@H](C(=O)N[C@@H](CCC(=O)O)C(=O)N[C@@H](CCC(=O)O)C(=O)N[C@@H](CC(C)C)C(=O)N[C@@H](CCC(N)=O)C(=O)N[C@@H](CO)C(=O)N1CCC[C@H]1C(=O)N[C@@H](Cc1ccccc1)C(=O)N[C@@H](C)C(=O)N[C@@H](CO)C(=O)N[C@@H](CCC(N)=O)C(=O)N[C@@H](CO)C(=O)N[C@@H](CCCNC(=N)N)C(=O)NCC(=O)N[C@@H](Cc1ccc(O)cc1)C(=O)N[C@@H](Cc1ccccc1)C(=O)N[C@@H](CC(C)C)C(=O)N[C@@H](Cc1ccccc1)C(=O)N[C@@H](CCCNC(=N)N)C(=O)N1CCC[C@H]1C(=O)N[C@@H](CCCNC(=N)N)C(=O)N[C@@H](CC(N)=O)C(N)=O)C(C)C)C(C)C` [Des-(Ser6,Lys7,Thr8,Gln9)FN38] (H-FLFHYKLGKSNVVEELQSPFASQSRGYFLFRPRN-NH2; N-terminus assumed), the remaining at 5 h in data set [1] (setting [3]) was 28%. Further, the “Food Intake Inhibition” value in data set [2] is reported as −72%.

With `CC(C)C[C@H](NC(=O)[C@H](CCCCN)NC(=O)[C@H](CCC(N)=O)NC(=O)[C@@H](NC(=O)[C@H](CCCCN)NC(=O)[C@H](CO)NC(=O)[C@H](Cc1ccc(O)cc1)NC(=O)[C@H](Cc1c[nH]cn1)NC(=O)[C@H](Cc1ccccc1)NC(=O)[C@H](CC(C)C)NC(=O)[C@@H](N)Cc1ccccc1)[C@@H](C)O)C(=O)NCC(=O)N[C@@H](CCCCN)C(=O)N[C@@H](CO)C(=O)N[C@@H](CC(N)=O)C(=O)N[C@H](C(=O)N[C@H](C(=O)N[C@@H](CCC(=O)O)C(=O)N[C@@H](CCC(=O)O)C(=O)N[C@@H](CC(C)C)C(=O)N[C@@H](CCC(N)=O)C(=O)N[C@@H](CO)C(=O)N1CCC[C@H]1C(=O)N[C@@H](Cc1ccccc1)C(=O)N[C@@H](C)C(=O)N[C@@H](CO)C(=O)N[C@@H](CCC(N)=O)C(=O)N[C@@H](CO)C(=O)N[C@@H](CCCNC(=N)N)C(=O)NCC(N)=O)C(C)C)C(C)C` [Compound 165062] (H-FLFHYSKTQKLGKSNVVEELQSPFASQSRG-NH2; N-terminus assumed), in data set [1] (setting [4]), the remaining at 5 h was 40%. In addition, the “FI (60′, 200)” value in data set [2] turned out to be 0%.

For the molecule `CC(C)C[C@H](NC(=O)[C@H](CCC(=O)O)NC(=O)[C@H](CCC(=O)O)NC(=O)[C@@H](NC(=O)[C@@H](NC(=O)[C@H](CC(N)=O)NC(=O)[C@H](CO)NC(=O)[C@H](CCCCN)NC(=O)CNC(=O)[C@H](CC(C)C)NC(=O)[C@@H](N)CCCCN)C(C)C)C(C)C)C(=O)N[C@@H](CCC(N)=O)C(=O)N[C@@H](CO)C(=O)N1CCC[C@H]1C(=O)N[C@@H](Cc1ccccc1)C(=O)N[C@@H](C)C(=O)N[C@@H](CO)C(=O)N[C@@H](CCC(N)=O)C(=O)N[C@@H](CO)C(=O)N[C@@H](CCCNC(=N)N)C(=O)NCC(=O)N[C@@H](Cc1ccc(O)cc1)C(=O)N[C@@H](Cc1ccccc1)C(=O)N[C@@H](CC(C)C)C(=O)N[C@@H](Cc1ccccc1)C(=O)N[C@@H](CCCNC(=N)N)C(=O)N1CCC[C@H]1C(=O)N[C@@H](CCCNC(=N)N)C(=O)N[C@@H](CC(N)=O)C(N)=O` [Des-(Phe1-Gln9)FN38] (H-KLGKSNVVEELQSPFASQSRGYFLFRPRN-NH2; N-terminus assumed), the remaining at 5 h in data set [1] (setting [3]) amounted to 55%. Further, the “Food Intake Inhibition” value in data set [2] was −70%.
